Assay results as given in patent US20070082877A1, “Difluoromethylbenzanilides and use thereof for combating micro-organisms, intermediate products and use thereof” (BAYER CORPSCIENCE AKTIENGESELLSCHAFT, priority 2003, published 2007).

Assay: log P determination by HPLC on reversed-phase column (C 18), EEC directive 79/831 Annex V.A8
Assay type: physicochemical
Settings: reversed-phase HPLC column (C 18), acidic range pH 2.3, 43° C.
Procedure: The given log P values were determined in accordance with EEC directive 79/831 Annex V.A8 by HPLC (High Performance Liquid Chromatography) on a reversed-phase column (C 18). Temperature: 43° C. Mobile phases for the determination in the acidic range (pH 2.3): 0.1% aqueous phosphoric acid, acetonitrile; linear gradient from 10% acetonitrile to 90% acetonitrile. Calibration was carried out using unbranched alkan-2-ones (having 3 to 6 carbon atoms) with known log P values (determination of the log P values by the retention times using linear interpolation between two successive alkanones).

CC(CC(C)(C)C)c1ccccc1NC(=O)c1ccccc1C(F)F (stereo not shown) [No. 1, 2-difluoromethyl-N-[2-(1,3,3-trimethylbutyl)phenyl]benzamide]
chromatographic logP: 4.38
